Results reported in patent US11285227B2, “Trifunctional constructs with tunablepharmacokinetics useful in imaging and anti-tumor therapies” (CORNELL UNIVERSITY, priority 2017, dated 2022).
Read-outs that look alike come from different tables or passages of the source. Marks after values point to notes of the source that are not given here. Values belong to the molecule of their own block, whether it stands above or below them.

Columns and labels:
PSMA on LNCaP cells = PSMA on LNCaP cells (Homo sapiens, UniProt Q04609); experiment: Multi-concentration competitive binding assay against 99mTc-MIP-1427 (Section 1.3); set-up: host or cells: LNCaP
Chain of PSMA on LNCaP cells (Q04609 whole entry): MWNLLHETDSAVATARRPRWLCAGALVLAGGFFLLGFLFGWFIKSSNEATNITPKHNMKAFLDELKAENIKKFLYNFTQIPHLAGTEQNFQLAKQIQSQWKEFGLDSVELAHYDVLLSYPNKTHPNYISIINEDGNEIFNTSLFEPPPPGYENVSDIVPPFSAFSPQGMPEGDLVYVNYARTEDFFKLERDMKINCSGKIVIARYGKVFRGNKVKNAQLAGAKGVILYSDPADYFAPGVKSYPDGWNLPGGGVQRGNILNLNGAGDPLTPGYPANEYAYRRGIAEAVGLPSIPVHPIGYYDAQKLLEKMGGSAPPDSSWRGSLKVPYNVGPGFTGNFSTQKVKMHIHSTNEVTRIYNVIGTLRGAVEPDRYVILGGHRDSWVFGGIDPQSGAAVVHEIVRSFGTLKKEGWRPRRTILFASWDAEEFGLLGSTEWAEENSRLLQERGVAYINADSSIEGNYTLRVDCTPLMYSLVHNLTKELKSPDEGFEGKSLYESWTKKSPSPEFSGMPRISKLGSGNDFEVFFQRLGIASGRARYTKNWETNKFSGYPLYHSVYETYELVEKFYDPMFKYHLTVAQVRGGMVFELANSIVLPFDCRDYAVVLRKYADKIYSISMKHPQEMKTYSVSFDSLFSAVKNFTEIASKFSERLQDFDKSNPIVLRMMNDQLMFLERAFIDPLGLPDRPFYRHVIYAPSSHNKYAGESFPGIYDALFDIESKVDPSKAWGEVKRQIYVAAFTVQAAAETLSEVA
Description: Cell Culture: The PSMA expressing human prostate cancer cell line, LNCaP, was obtained from the American Type Culture Collection. Cell culture supplies were obtained from Invitrogen unless otherwise noted. LNCaP cells were maintained in RPMI-1640 medium supplemented with 10% fetal bovine serum (Hyclone), 4 mM L-glutamine, 1 mM sodium pyruvate, 10 mM N-2-hydroxyethylpiperazine-N-2-ethanesulfonic acid (HEPES), 2.5 mg/mL D-glucose, and 50 μg/mL gentamicin in a humidified incubator at 37° C./5% CO2. Cells were removed from flasks for passage or for transfer to 12-well assay plates by incubating them with 0.25% trypsin/ethylenediaminetetraacetic acid (EDTA).
In vitro determination of IC50: IC50 values of the non-labeled, metal-free ligands were determined by screening in a multi-concentration competitive binding assay against ^99mTc-((7S,12S,16S)-1-(1-(carboxymethyl)-1H-imidazol-2-yl)-2-((1-(carboxymethyl)-1H-imidazol-2-yl)methyl)-9,14-dioxo-2,8,13,15-tetraazaoctadecane-7,12,16,18-tetracarboxylic acid technetium tricarbonyl complex) (^99mTc-MIP-1427) for binding to PSMA on LNCaP cells, according to previously described methods [18,19] with small modifications. Briefly, LNCaP cells were plated 48 h prior to the experiment to achieve a density of approximately 5×10^5 cells/well (in triplicate) in RPMI-1640 medium supplemented with 0.25% bovine serum albumin. The cells were incubated for 2 h with 1 nM ^99mTc-MIP-1427 in serum-free RPMI-1640 medium in the presence of 0.001-10,000 nM test compounds. Radioactive incubation media was then removed by pipette and the cells were washed twice using 1 mL ice-cold PBS 1× solution. Cells were harvested from the plates following treatment with 1 mL 1M NaOH and transferred to tubes for radioactive counting using a 2470 Wizard^2 Automatic Gamma Counter (Perkin Elmer). Standard solutions (10% of activity added to each well) were prepared to enable decay correction. IC50 values were determined by fitting the data points to a sigmoidal Hills1 curve in Origin software.

[1] = test system: LNCaP xenograft tumor-bearing mice; experiment: Biodistribution studies of 177Lu-labeled ligands in LNCaP xenograft mice; format: in vivo; conditions: for Max. Tumor Uptake: corresponding 177Lu-labeled compound
Description: (§1) Inoculation of mice with xenografts: All animal studies were approved by the Institutional Animal Care and Use Committee of Weill Cornell Medicine and were undertaken in accordance with the guidelines set forth by the USPHS Policy on Humane Care and Use of Laboratory Animals. Animals were housed under standard conditions in approved facilities with 12 h light/dark cycles. Food and water was provided ad libitum throughout the course of the studies. Hairless male nu/nu mice were purchased from the Jackson Laboratory. For inoculation in mice, LNCaP cells were suspended at 4×10^7 cells/mL in a 1:1 mixture of PBS:Matrigel (BD Biosciences). Each mouse was injected in the left flank with 0.25 mL of the cell suspension. The mice were imaged when the tumors reached approximately 200-400 mm^3, while biodistributions were conducted when tumors were in the range 100-400 mm^3.
Biodistribution studies of ^177Lu-labeled ligands in LNCaP xenograft mice: LNCaP xenograft tumor-bearing mice (5 per time point per compound) were injected intravenously with a bolus injection of 348-851 kBq (9.4-23 μCi) and 37-50 ng (23-25 pmol) of each ligand. The mice were sacrificed at 4, 24 and 96 h post injection. A blood sample was removed, and a full biodistribution study was conducted on the following organs (with contents): heart, lungs, liver, small intestine, large intestine, stomach, spleen, pancreas, kidneys, muscle, bone and tumor. Tissues were weighed and counted on a 2470 Wizard^2 Automatic Gamma Counter (Perkin Elmer). Counts were corrected for decay and for activity injected, and tissue uptake was expressed as percent injected dose per gram (% ID/g). Standard error measurement was calculated for each data point.

[2] = test system: LNCaP xenograft tumor-bearing mice; experiment: Dosimetry (dose integrals from 177Lu biodistribution); format: in vivo
Description: Dosimetry: The dosimetry was calculated assuming a linear interpolation between the three time points. The average injected dose per organ was calculated by using the average of the activity and organ weights of the mice at that time point. Intermediate time points at every 4 hours were generated using the linear approximation and all time points were corrected for decay during the time interval between points. These curves were integrated using a trapezoidal approximation and the sum used to determine the residence time.

[3] = test system: LNCaP xenograft tumor-bearing mice; experiment: µPET/CT imaging of 66Ga-RPS ligands in LNCaP xenograft mice; format: in vivo
Description: as §1
Imaging of ^66Ga-RPS ligands in LNCaP xenograft mice: LNCaP xenograft tumor-bearing mice (2-3 per compound) injected intravenously with a bolus injection of 0.56-5.4 MBq (15-145 μCi) of the ^66Ga-labeled ligand. The specific activity of the tracers was in the range 14.8-47 MBq/pmol (0.4-1.27 mCi/pmol). The mice were imaged using μPET/CT (Inveon™; Siemens Medical Solutions, Inc.) at 1, 3, 6 and 24 h post-injection following inhalation anesthetization with isoflurane. Total acquisition time was 30 min for the 1 h, 3 h and 6 h images, and 60 min for 24 h time point. A CT scan was obtained immediately before the acquisition for both anatomical co-registration and attenuation correction. Images were reconstructed using the Inveon™ software supplied by the vendor. Image-derived tumor and kidney uptake was estimated by comparison to a 10% injected dose per cubic mm (% ID/mm^3) standard introduced into the imaging field of view. The standard was prepared by dilution of 10% of the injected activity to 1 mL with saline. Volumes of interest (VOIs) were drawn with the aid of the CT and confirmed by PET. The contents of the VOIs were integrated and the calculated counts were converted to % ID/mm^3 by direct comparison to the aforementioned standard following correction for activity injected.

[4] = C57BL/6 mice, tail vein, 10-50 kBq; 15 min, 1 h, 5 h
Description: C57BL/6 mice were injected via tail vein with 10-50 kBq of each radiometal complex and were sacrificed after 15 min, 1 h, or 5 h.

[5] = non-labeled, metal-free ligands, competitive binding in LNCaP cells vs 1 nM 99mTc-MIP-1427, 2 h, read-out: IC50

Structure (SMILES): O=C(O)CC[C@H](NC(=O)N[C@@H](CCCCNC(=O)Nc1cccc(-c2cn(CCOCCOCCOCCOCCOCCOCCC(=O)N[C@@H](CCCCNC(=S)Nc3ccc(CC4CN(CC(=O)O)CCN(CC(=O)O)CCN(CC(=O)O)CCN4CC(=O)O)cc3)C(=O)N[C@@H](CCCCNC(=O)Cc3ccc(I)cc3)C(=O)O)nn2)c1)C(=O)O)C(=O)O (stereo partly drawn) [RPS-069, (((1S)-1-carboxy-5-(3-(3-(1-((23S,26S)-26-carboxy-33-(4-iodophenyl)-21,24,32-trioxo-23-(4-(3-(4-((1,4,7,10-tetrakis(carboxymethyl)-1,4,7,10-tetraazacyclododecan-2-yl)methyl)phenyl)thioureido)butyl)-3,6,9,12,15,18-hexaoxa-22,25,31-triazatritriacontyl)-1H-1,2,3-triazol-4-yl)phenyl)ureido)pentyl)carbamoyl)-L-glutamic acid]
IC50 (PSMA on LNCaP cells; [5]): 3.8 nM
Max. Tumor Uptake ([1]; a = 4 h p.i.): 17.0 % ID/g

Structure (SMILES): O=C(O)CC[C@H](NC(=O)N[C@@H](CCCCNC(=O)Nc1cccc(-c2cn(CCOCCOCCOCCOCCOCCOCCOCCOCCC(=O)N[C@@H](CCCCNC(=S)Nc3ccc(CC4CN(CC(=O)O)CCN(CC(=O)O)CCN(CC(=O)O)CCN4CC(=O)O)cc3)C(=O)N[C@@H](CCCCNC(=O)Cc3ccc(I)cc3)C(=O)O)nn2)c1)C(=O)O)C(=O)O (stereo partly drawn) [RPS-066, (((1S)-1-carboxy-5-(3-(3-(1-((29S,32S)-32-carboxy-39-(4-iodophenyl)-27,30,38-trioxo-29-(4-(3-(4-((1,4,7,10-tetrakis(carboxymethyl)-1,4,7,10-tetraazacyclododecan-2-yl)methyl)phenyl)thioureido)butyl)-3,6,9,12,15,18,21,24-octaoxa-28,31,37-triazanonatriacontyl)-1H-1,2,3-triazol-4-yl)phenyl)ureido)pentyl)carbamoyl)-L-glutamic acid]
IC50 (PSMA on LNCaP cells; [5]): 5.2 nM
Max. Tumor Uptake ([1]; a = 4 h p.i.): 18.7 % ID/g

Structure (SMILES): O=C(O)CCC(NC(=O)NC(CCCCNC(=O)Nc1cccc(-c2cnnn2CC(=O)NC(CCCCNC(=S)Nc2ccc(CC3CN(CC(=O)O)CCN(CC(=O)O)CCN(CC(=O)O)CCN3CC(=O)O)cc2)C(=O)NC(CCCCNC(=O)Cc2ccc(I)cc2)C(=O)O)c1)C(=O)O)C(=O)O (stereo not shown) [^177Lu-RPS-068, metal not drawn]
Tumor uptake (in words) ([1]; 4-96 h p.i.): high and remained high
Blood activity (in words) ([1]; 4 h p.i.): highest blood activity
Tumor uptake ([1]; 4 h p.i.): 21.8±2.8 % ID/g
Kidney uptake ([1]; 24 h p.i.): 87.3±6.7 % ID/g
Tumor uptake ([1]; 96 h p.i.): 14.9±1.5 % ID/g
Tumor-to-kidney ratio ([1]; 96 h p.i.): 1.56±0.23
Dose integral in the tumor relative to 177Lu-PSMA-617 ([2]; over 96 h): nearly four times higher

Structure (SMILES): O=C(O)CCC(NC(=O)NC(CCCCNC(=O)Nc1cccc(-c2cnnn2CC(=O)NC(CCCCNC(=S)Nc2ccc(CC3CN(CC(=O)O)CCN(CC(=O)O)CCN(CC(=O)O)CCN3CC(=O)O)cc2)C(=O)NC(CCCCNC(=O)Cc2ccc(I)cc2)C(=O)O)c1)C(=O)O)C(=O)O (stereo not shown) [^66Ga-RPS-068, metal not drawn]
Kidney uptake (image-derived) ([3]; 24 h post injection): 1.9±0.3 % ID/cm^3
Maximum tumor uptake (image-derived) ([3]; maximum at 3 h post injection): 9.7±2.0 % ID/cm^3

Structure (SMILES): O=C(O)CCC(NC(=O)NC(CCCCNC(=O)C(Cc1ccc2ccccc2c1)NC(=O)C1CCC(CNC(=O)CN2CCN(CC(=O)O)CCN(CC(=O)O)CCN(CC(=O)O)CC2)CC1)C(=O)O)C(=O)O (stereo not shown) [^66Ga-PSMA-617, metal not drawn, reference compound]
Tumor uptake (image-derived) ([3]; 24 h post injection): 1.1±0.4 % ID/cm^3
Maximum tumor uptake (image-derived) ([3]; maximum at 1 h post injection): 3.1±0.4 % ID/cm^3

Structure (SMILES): O=C(O)CC[C@H](NC(=O)N[C@@H](CCCCNC(=O)Nc1cccc(-c2cn(CCOCCOCCOCCOCCC(=O)N[C@@H](CCCCNC(=S)Nc3ccc(CC4CN(CC(=O)O)CCN(CC(=O)O)CCN(CC(=O)O)CCN4CC(=O)O)cc3)C(=O)N[C@@H](CCCCNC(=O)Cc3ccc(I)cc3)C(=O)O)nn2)c1)C(=O)O)C(=O)O (stereo partly drawn) [RPS-061, (((1S)-1-carboxy-5-(3-(3-(1-((17S,20S)-20-carboxy-27-(4-iodophenyl)-15,18,26-trioxo-17-(4-(3-(4-((1,4,7,10-tetrakis(carboxymethyl)-1,4,7,10-tetraazacyclododecan-2-yl)methyl)phenyl)thioureido)butyl)-3,6,9,12-tetraoxa-16,19,25-triazaheptacosyl)-1H-1,2,3-triazol-4-yl)phenyl)ureido)pentyl)carbamoyl)-L-glutamic acid]
IC50 (PSMA on LNCaP cells; [5]): 4.1 nM
Max. Tumor Uptake ([1]; a = 4 h p.i.): 20.4 % ID/g

Structure (SMILES): O=C(O)CC[C@H](NC(=O)N[C@@H](CCCCNC(=O)Nc1cccc(-c2cn(CCOCCOCCOCCC(=O)N[C@@H](CCCCNC(=S)Nc3ccc(CC4CN(CC(=O)O)CCN(CC(=O)O)CCN(CC(=O)O)CCN4CC(=O)O)cc3)C(=O)N[C@@H](CCCCNC(=O)Cc3ccc(I)cc3)C(=O)O)nn2)c1)C(=O)O)C(=O)O (stereo partly drawn) [RPS-063, (((1S)-1-carboxy-5-(3-(3-(1-((14S,17S)-17-carboxy-24-(4-iodophenyl)-12,15,23-trioxo-14-(4-(3-(4-((1,4,7,10-tetrakis(carboxymethyl)-1,4,7,10-tetraazacyclododecan-2-yl)methyl)phenyl)thioureido)butyl)-3,6,9-trioxa-13,16,22-triazatetracosyl)-1H-1,2,3-triazol-4-yl)phenyl)ureido)pentyl)carbamoyl)-L-glutamic acid]
IC50 (PSMA on LNCaP cells): 1.5 ± 0.3 nM
Max. Tumor Uptake ([1]; a = 4 h p.i.): 30.0 % ID/g

Structure (SMILES): O=C(O)CCC(NC(=O)NC(CCCCNC(=O)C(Cc1ccc2ccccc2c1)NC(=O)C1CCC(CNC(=O)CN2CCN(CC(=O)O)CCN(CC(=O)O)CCN(CC(=O)O)CC2)CC1)C(=O)O)C(=O)O (stereo not shown) [^177Lu-PSMA-617, metal not drawn, reference compound]
Kidney uptake ([1]; 4 h p.i.): 14.1±3.1 % ID/g
Tumor uptake ([1]; 4 h p.i.): 14.4±1.1 % ID/g
Tumor uptake ([1]; 96 h p.i.): 3.5±0.3 % ID/g
Tumor-to-kidney ratio ([1]; 96 h p.i.): 14.39±2.2
Ratio of tumor dose integral to kidney dose integral ([2]; over the 96 h): 1.95

Structure (SMILES): O=C([O-])c1cccc(CN2CCOCCOCCN(Cc3cccc(C(=O)[O-])n3)CCOCCOCC2)n1.[225Ac+3] [[^225Ac(macropa)]^+]
Biodistribution profile (clearance) [4]: rapidly cleared from mice, with very little activity measured in blood by 1 h post injection
Organ accumulation / in vivo stability of the complex [4]: did not accumulate in any organ

Structure (SMILES): O=C([O-])CN1CCN(CC(=O)[O-])CCN(CC(=O)[O-])CCN(CC(=O)[O-])CC1.[225Ac+3] [[^225Ac(DOTA)]^−, reference compound]
Biodistribution profile (clearance) [4]: appeared to clear more rapidly through the urine

Results, then the molecule that gave them:

IC50 (PSMA on LNCaP cells; [5]): 2.1 ± 0.1 nM
Max. Tumor Uptake ([1]; b = 24 h p.i.): 26.9 ± 2.0^b % ID/g
Structure (SMILES): O=C(O)CC[C@H](NC(=O)N[C@@H](CCCCNC(=O)Nc1cccc(-c2cnnn2CC(=O)N[C@@H](CCCCNC(=S)Nc2ccc(CC3CN(CC(=O)O)CCN(CC(=O)O)CCN(CC(=O)O)CCN3CC(=O)O)cc2)C(=O)N[C@@H](CCCCNC(=O)Cc2ccc(I)cc2)C(=O)O)c1)C(=O)O)C(=O)O (stereo partly drawn) [RPS-068, (((1S)-1-carboxy-5-(3-(3-(1-(2-(((2S)-1-(((S)-1-carboxy-5-(2-(4-iodophenyl)acetamido)pentyl)amino)-1-oxo-6-(3-(4-((1,4,7,10-tetrakis(carboxymethyl)-1,4,7,10-tetraazacyclododecan-2-yl)methyl)phenyl)thioureido)hexan-2-yl)amino)-2-oxoethyl)-1H-1,2,3-triazol-5-yl)phenyl)ureido)pentyl)carbamoyl)-L-glutamic acid]

IC50 (PSMA on LNCaP cells; [5]): 6.6 ± 0.7 nM
Max. Tumor Uptake ([1]; a = 4 h p.i.): 14.4 ± 2.5 % ID/g
Structure (SMILES): O=C(O)CCC(NC(=O)NC(CCCCNC(=O)C(Cc1ccc2ccccc2c1)NC(=O)C1CCC(CNC(=O)CN2CCN(CC(=O)O)CCN(CC(=O)O)CCN(CC(=O)O)CC2)CC1)C(=O)O)C(=O)O (stereo not shown) [PSMA-617, reference compound]
